Values of other authors, collected in patent publication US3955959A, “Herbicide for use in transplanted rice” (priority 1974, dated 1976).

Legend:
rice = conditions: prior art; cited from earlier work
weeds in rice fields = conditions: prior art; cited from earlier work

Compound | crop safety (rice) | spectrum of weed control (weeds in rice fields)
CC(C)Oc1cc(-n2nc(C(C)(C)C)oc2=O)c(Cl)cc1Cl [2-tert-butyl-4-(2,4-dichloro-5-isopropyloxyphenyl)-5-oxo-1,3,4-oxadiazoline] | marginal crop safety | 
CCSC(=O)N1CCCCCC1 [S-ethyl hexahydro-1H-azepine-1-carbothioate] |  | narrow spectrum of weed control
